Measurements as given in patent US20240067632A1, “WEE1 Degrading Compounds and Uses Thereof” (Bristol-Myers Squibb Company, priority 2022, published 2024).

Biological target: T1, WEE1 (Homo sapiens, UniProt P30291+Q96SW2)
T1 construct: C-terminal ePL-tagged (DiscoverX, Fremont, CA) full-length WEE1 expression construct; expressed in transfected cells; host or cells: LentiX-HEK293T (Invitrogen), lentiviral transduction; co-expressing GSPT1-GN (G576N, lacking the first 158 amino acids)
Test: WEE1-ePL degradation assay (LentiX-WEE1-ePL-GSPT1-ND cells, InCELL Hunter luminescence, 4 h)
Format: cell-based
Conditions: 293T-LentiX WEE1-ePL cells; for DC50: read-out: 293T-LentiX WEE1-ePL Degradation 4 hr (EC50)
Method: To generate LentiX-WEE1-ePL-GSPT1-ND cells for the WEE1 degradation assay, LentiX-HEK293T (Invitrogen) were transduced by lentivirus with a C-terminal ePL-tagged (DiscoverX, Fremont, CA) full-length WEE1 expression construct. […] Cells were selected and maintained in complete DMEM media (DMEM, 10% Heat Inactivated FBS, 400 μg/mL Geneticin, and 1 μg/mL puromycin at 37 C and 5% CO2). Cells were passaged every 3-4 days by reseeding 1×10^6 cells in a T150 flask.
Cells were dispensed into 384-well white plates (Corning #3570, NY) that were pre-spotted with compounds using an acoustic dispenser (Echo acoustic transfer system, Beckman Coulter Life Sciences, Carlsbad, CA) as a 10-point dose-response curve with a 3-fold dilution starting at either 1 uM or 10 uM and including a DMSO control. Twenty-five microliters of media containing 2500 cells for LentiX-oeWEE1-ePL was dispensed per well. Assay plates were incubated at 37° C. with 5% CO2 for four hours (WEE1) After incubation, 25 μL of the InCELL Hunter™ Detection Reagent Working Solution (DiscoverX, Fremont, CA) was added to each well and incubated at room temperature for 30 minutes protected from light. After 30 minutes, luminescence was read on a PHERAstar luminometer (Cary, NC).
To determine the half-maximal effective concentration (EC50) values for WEE1-ePL degradation, a four parameter logistic model was used: (Sigmoidal Dose-Response Model) (FIT=(A+((B−A)/1+((C/x)^D)))) where C is the inflection point (EC50), D is the Hill slope, and A and B are the low and high limits of the fit respectively). The lower limit of the fit (value A) is referred to as Ymin. […] The maximum limit constraint, Ymax, is similarly derived using DMSO control. The curves were processed and evaluated using Activity Base (IDBS, Alameda, CA).

[1] = lower limit of the fit (Ymin=0 luciferase inhibitor, Ymax DMSO control)
[2] = lower limit of the fit (0 = luciferase inhibitor, Ymax = DMSO control)

Row | Structure (SMILES) | 293T-LentiX WEE1-ePL Degradation 4 hr (Ymin) [1] | DC50 | 293T-LentiX WEE1-ePL Degradation 4 hr (Ymin) [2]
1 | O=C1CC[C@H](N2Cc3cc(O[C@H]4CCN(Cc5ccc6nc(N7CCOCC7)ncc6c5F)C4)ccc3C2=O)C(=O)N1 [(3S)-3-(5-{[(3S)-1-{[5-fluoro-2-(morpholin-4-yl)quinazolin-6-yl]methyl}pyrrolidin-3-yl]oxy}-1-oxo-2,3-dihydro-1H-isoindol-2-yl)piperidine-2,6-dione] | 32.24 | 0.00327 µM | –
2 | COC[C@H]1CCC[C@@H](c2ccc3cc(CN4CC[C@H](Oc5ccc6c(c5)CN(C5CCC(=O)NC5=O)C6=O)C4)ccc3n2)C1 (stereo partly drawn) [3-(5-{[(3S)-1-({2-[(1R,3S)-3-(methoxymethyl)cyclohexyl]quinolin-6-yl}methyl)pyrrolidin-3-yl]oxy}-1-oxo-2,3-dihydro-1H-isoindol-2-yl)piperidine-2,6-dione] | 26.32 | 0.00182 µM | –
3 | Nc1cccc(COc2ccccc2CN2CC[C@H](Oc3ccc4c(c3)CN(C3CCC(=O)NC3=O)C4=O)C2)c1 (stereo partly drawn) [3-(5-{[(3S)-1-({2-[(3-aminophenyl)methoxy]phenyl}methyl)pyrrolidin-3-yl]oxy}-1-oxo-2,3-dihydro-1H-isoindol-2-yl)piperidine-2,6-dione] | – | – | 92.17
4 | NCc1ccc(COc2ccccc2CN2CC[C@H](Oc3ccc4c(c3)CN(C3CCC(=O)NC3=O)C4=O)C2)cc1 (stereo partly drawn) [3-(5-{[(3S)-1-[(2-{[4-(aminomethyl)phenyl]methoxy}phenyl)methyl]pyrrolidin-3-yl]oxy}-1-oxo-2,3-dihydro-1H-isoindol-2-yl)piperidine-2,6-dione] | – | – | 88.71
5 | O=C1CCC(N2Cc3cc(O[C@H]4CCN(Cc5ccc6cnccc6n5)C4)ccc3C2=O)C(=O)N1 (stereo partly drawn) [3-(5-{[(3S)-1-[(1,6-naphthyridin-2-yl)methyl]pyrrolidin-3-yl]oxy}-1-oxo-2,3-dihydro-1H-isoindol-2-yl)piperidine-2,6-dione] | – | 0.109 µM | 42.7
6 | O=C1CCC(N2Cc3ccc(O[C@@H]4CCN(Cc5cnc6ccccc6c5)C4)cc3C2=O)C(=O)N1 (stereo partly drawn) [3-(1-oxo-6-{[(3R)-1-[(quinolin-3-yl)methyl]pyrrolidin-3-yl]oxy}-2,3-dihydro-1H-isoindol-2-yl)piperidine-2,6-dione] | – | – | 89.42
7 | C[C@H]1c2cc(O[C@H]3CCN(Cc4ccc5nc(N6CCOCC6)ncc5c4)C3)ccc2C(=O)N1[C@H]1CCC(=O)NC1=O [(3S)-3-[(3S)-3-methyl-5-{[(3S)-1-{[2-(morpholin-4-yl)quinazolin-6-yl]methyl}pyrrolidin-3-yl]oxy}-1-oxo-2,3-dihydro-1H-isoindol-2-yl]piperidine-2,6-dione] | 37.95 | 1.18 µM | –
8 | O=C1CCC(N2Cc3cc(O[C@H]4CCN(Cc5cccc6nccnc56)C4)ccc3C2=O)C(=O)N1 (stereo partly drawn) [3-(1-oxo-5-{[(3S)-1-[(quinoxalin-5-yl)methyl]pyrrolidin-3-yl]oxy}-2,3-dihydro-1H-isoindol-2-yl)piperidine-2,6-dione] | – | 0.174 µM | 53.34
9 | O=C1CCC(N2Cc3cc(O[C@@H]4CCN(Cc5cccc6ncccc56)C4)ccc3C2=O)C(=O)N1 (stereo partly drawn) [3-(1-oxo-5-{[(3R)-1-[(quinolin-5-yl)methyl]pyrrolidin-3-yl]oxy}-2,3-dihydro-1H-isoindol-2-yl)piperidine-2,6-dione] | 91.51 | – | –
10 | O=C1CCC(N2C(=O)c3ccc(O[C@@H]4CCN(Cc5ccnc6ccccc56)C4)cc3C2=O)C(=O)N1 (stereo partly drawn) [2-(2,6-dioxopiperidin-3-yl)-5-{[(3R)-1-[(quinolin-4-yl)methyl]pyrrolidin-3-yl]oxy}-2,3-dihydro-1H-isoindole-1,3-dione] | – | – | 90.1
